Experimental data: US8552023B2, “Non-amidic linkers with branched termini as CGRP receptor antagonists” (Merck Sharp & Dohme Corp., priority 2008, dated 2013)
pKi: −log10 of the molar value. Read-outs that look alike come from different tables or passages of the source.

Molecular target: recombinant human CL receptor/RAMP1 (Homo sapiens (Human), UniProt O60894+Q16602)
Test: Human CGRP receptor binding (recombinant receptor binding assay, 125I-hCGRP)
Method: RECOMBINANT RECEPTOR: Human CL receptor (Genbank accession number L76380) was subcloned into the expression vector pIREShyg2 (BD Biosciences Clontech) as a 5′NheI and 3′ PmeI fragment. Human RAMP1 (Genbank accession number AJ001014) was subcloned into the expression vector pIRESpuro2 (BD Biosciences Clontech) as a 5′NheI and 3′NotI fragment. HEK 293 cells (human embryonic kidney cells; ATCC #CRL-1573) were cultured in DMEM with 4.5 g/L glucose, 1 mM sodium pyruvate and 2 mM glutamine supplemented with 10% fetal bovine serum (FBS), 100 units/mL penicillin and 100 μg/mL streptomycin, and maintained at 37° C. and 95% humidity. Cells were subcultured by treatment with 0.25% trypsin with 0.1% EDTA in HBSS. Stable cell line generation was accomplished by co-transfecting 10 μg of DNA with 30 μg Lipofectamine 2000 (Invitrogen) in 75 cm^2 flasks. CL receptor and RAMP1 expression constructs were co-transfected in equal amounts. Twenty-four hours after transfection the cells were diluted and selective medium (growth medium+300 μg/mL hygromycin and 1 μg/mL puromycin) was added the following day. A clonal cell line was generated by single cell deposition utilizing a FACS Vantage SE (Becton Dickinson). Growth medium was adjusted to 150 μg/mL hygromycin and 0.5 μg/mL puromycin for cell propagation.
The cell suspension was disrupted with a laboratory homogenizer and centrifuged at 48,000 g to isolate membranes. The pellets were resuspended in harvest buffer plus 250 mM sucrose and stored at −70° C. For binding assays, 20 μg of membranes were incubated in 1 ml binding buffer (10 mM HEPES, pH 7.4, 5 mM MgCl2, and 0.2% BSA) for 3 hours at room temperature containing 10 pM ^125I-hCGRP (GE Healthcare) and antagonist. The assay was terminated by filtration through 96-well GFB glass fiber filter plates (PerkinElmer) that had been blocked with 0.05% polyethyleneimine. The filters were washed 3 times with ice-cold assay buffer (10 mM HEPES, pH 7.4 and 5 mM MgCl2). Scintillation fluid was added and the plates were counted on a Topcount (Packard). Non-specific binding was determined and the data analysis was carried out with the apparent dissociation constant (Ki) determined by using a non-linear least squares fitting the bound CPM data to the equation below: […]

[1] = read-out: Human CGRP receptor binding Ki

Chain of recombinant human CL receptor/RAMP1 (Q16602 23-461): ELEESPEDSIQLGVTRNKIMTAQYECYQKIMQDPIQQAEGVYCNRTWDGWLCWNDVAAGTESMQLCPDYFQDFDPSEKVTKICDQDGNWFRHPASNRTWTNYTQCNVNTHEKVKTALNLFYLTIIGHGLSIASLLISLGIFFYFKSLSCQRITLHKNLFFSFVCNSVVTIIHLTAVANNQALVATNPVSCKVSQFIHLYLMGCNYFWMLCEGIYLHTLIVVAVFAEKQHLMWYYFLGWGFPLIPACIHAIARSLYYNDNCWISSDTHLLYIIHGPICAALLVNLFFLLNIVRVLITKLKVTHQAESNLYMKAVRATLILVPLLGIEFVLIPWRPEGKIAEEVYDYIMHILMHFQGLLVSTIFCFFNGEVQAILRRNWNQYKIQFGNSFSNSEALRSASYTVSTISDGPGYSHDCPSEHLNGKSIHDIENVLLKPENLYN
Chain of recombinant human CL receptor/RAMP1 (O60894 27-148): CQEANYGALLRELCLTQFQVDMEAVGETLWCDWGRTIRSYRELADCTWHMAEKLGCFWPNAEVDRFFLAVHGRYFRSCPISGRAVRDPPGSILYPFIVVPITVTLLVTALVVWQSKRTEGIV

A pKi [1] of 7.70 was found for CC(C)(C)C(=O)N(CC#Cc1ccc2c(c1)CC1(C2)C(=O)Nc2ncccc21)Cc1ccccc1 (centres unmarked) [Example 1, N-Benzyl-2,2-dimethyl-N-[3-(2′-oxo-1,1′,2′,3-tetrahydrospiro[indene-2,3′-pyrrolo[2,3-b]pyridin]-5-yl)prop-2-yn-1-yl]propanamide] in this work.
A pKi [1] of 7.35 was found for CC(C)(C)C(=O)N(CCCc1ccc2c(c1)CC1(C2)C(=O)Nc2ncccc21)Cc1ccccc1 (centres unmarked) [Example 2, N-benzyl-2,2-dimethyl-N-[3-(2′-oxo-1,1′,2′,3-tetrahydrospiro[indene-2,3′-pyrrolo[2,3-b]pyridin]-5-yl)propyl]propanamide] in this work.
A pKi [1] of 10.22 was found for CC(C)(CF)C(=O)N(C/C=C/c1cnc2c(c1)C[C@@]1(C2)C(=O)Nc2ncccc21)[C@@H]1CCc2ccccc21 [Example 3, N-[(1R)-2,3-dihydro-1H-inden-1-yl]-3-fluoro-2,2-dimethyl-N-{(2E)-3-[(6S)-2′-oxo-1′,2′,5,7-tetrahydrospiro[cyclopenta[b]pyridine-6,3′-pyrrolo[2,3-b]pyridin]-3-yl]prop-2-en-1-yl}propanamide] in this work.
A pKi (read-out: Ki) of 10.19 was found for C[C@H](c1cc(F)cc(F)c1)N(C/C=C/c1cnc2c(c1)C[C@@]1(C2)C(=O)Nc2ncccc21)C(=O)C(C)(C)CCl [Example 6] in this work.
A pKi (read-out: Ki) of 10.39 was found for C[C@H](c1cc(F)cc(F)c1)N(C/C=C/c1cnc2c(c1)C[C@@]1(C2)C(=O)Nc2ncccc21)C(=O)C(C)(C)CF [Example 7] in this work.
A pKi (read-out: Ki) of 9.37 was found for C[C@H](c1cc(F)cc(F)c1)N(C/C=C/c1ccc2c(c1)C[C@@]1(C2)C(=O)NC(=O)N1C)C(=O)C(C)(C)C [Example 8] in this work.
A pKi (read-out: Ki) of 10.30 was found for C[C@H](c1cc(F)cc(F)c1)N(C/C=C/c1cnc2c(c1)C[C@@]1(C2)C(=O)Nc2ncccc21)C(=O)C1(C(F)(F)F)CC1 [Example 11] in this work.
A pKi (read-out: Ki) of 9.89 was found for Cc1ccc([C@@H](C)N(C/C=C/c2cnc3c(c2)C[C@@]2(C3)C(=O)Nc3ncccc32)C(=O)C(C)(C)C)cc1F [Example 13] in this work.
